# Reference: PubChem BioAssay (NCI)
#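 Briefly, cells in 96-well plates were exposed to five compound concentrations for 48 h, and endpoints were estimated by linear interpolation. TGI is the concentration that stops growth completely.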
# Tested on: OVCAR-5 ovarian
# Experiment: DTP human tumour cell line panel, 48 h
row,SMILES,TGI
1,COc1cc(Cc2cc(OC)c(OC)c(OC)c2)ccc1O,> 100 µM
2,Nc1nc(Cl)cc(NCC2(CO)CC(OCc3ccccc3)C2)n1 (stereo not given),> 100 µM
3,CC1=CC(=O)NCCN1C,> 100 µM

# Tested on: A549 NSCLC
# Experiment: DTP human tumour cell line panel, 48 h
row,SMILES,TGI
1,Cc1cccc(N2C(=O)C(Cl)=C(Cl)C2=O)c1,> 100 µM
2,CCC(C)(O)c1cn(-c2cccc(S(=O)(=O)O)c2)nn1 (stereo not given),> 100 µM
3,COc1ccc(OC)c(/C=C/NC=O)c1,> 100 µM
4,CC(=O)c1cccc2c1CC1(C2)Cc2ccc3c(c2C1=O)CCC3 (stereo not given),> 100 µM
5,COc1cc(Cc2cc(OC)c(OC)c(OC)c2)ccc1O,> 100 µM
6,Nc1nc(Cl)cc(NCC2(CO)CC(OCc3ccccc3)C2)n1 (stereo not given),> 100 µM
7,CC1=CC(=O)NCCN1C,> 100 µM

# Tested on: LXFL 529 NSCLC
# Experiment: DTP human tumour cell line panel, 48 h
row,SMILES,TGI
1,Cc1cccc(N2C(=O)C(Cl)=C(Cl)C2=O)c1,> 56.3 µM
2,CCC(C)(O)c1cn(-c2cccc(S(=O)(=O)O)c2)nn1 (stereo not given),> 100 µM
3,COc1ccc(OC)c(/C=C/NC=O)c1,> 100 µM
4,COc1cc(Cc2cc(OC)c(OC)c(OC)c2)ccc1O,> 100 µM
5,CC1=CC(=O)NCCN1C,> 100 µM

# Tested on: SK-OV-3 ovarian
# Experiment: DTP human tumour cell line panel, 48 h
row,SMILES,TGI
1,Cc1cccc(N2C(=O)C(Cl)=C(Cl)C2=O)c1,> 100 µM
2,CCC(C)(O)c1cn(-c2cccc(S(=O)(=O)O)c2)nn1 (stereo not given),> 100 µM
3,COc1ccc(OC)c(/C=C/NC=O)c1,> 100 µM
4,CC(=O)c1cccc2c1CC1(C2)Cc2ccc3c(c2C1=O)CCC3 (stereo not given),> 100 µM
5,COc1cc(Cc2cc(OC)c(OC)c(OC)c2)ccc1O,> 100 µM
6,Nc1nc(Cl)cc(NCC2(CO)CC(OCc3ccccc3)C2)n1 (stereo not given),> 100 µM
7,CC1=CC(=O)NCCN1C,> 100 µM

# Tested on: DU-145 prostate
# Experiment: DTP human tumour cell line panel, 48 h
row,SMILES,TGI
1,COc1ccc(OC)c(/C=C/NC=O)c1,> 100 µM
2,CC(=O)c1cccc2c1CC1(C2)Cc2ccc3c(c2C1=O)CCC3 (stereo not given),> 100 µM
3,Nc1nc(Cl)cc(NCC2(CO)CC(OCc3ccccc3)C2)n1 (stereo not given),> 100 µM

# Tested on: BT-549 breast
# Experiment: DTP human tumour cell line panel, 48 h
row,SMILES,TGI
1,CC(=O)c1cccc2c1CC1(C2)Cc2ccc3c(c2C1=O)CCC3 (stereo not given),> 100 µM
2,Nc1nc(Cl)cc(NCC2(CO)CC(OCc3ccccc3)C2)n1 (stereo not given),> 100 µM

# Tested on: HS 578T breast
# Experiment: DTP human tumour cell line panel, 48 h
row,SMILES,TGI
1,CC(=O)c1cccc2c1CC1(C2)Cc2ccc3c(c2C1=O)CCC3 (stereo not given),> 100 µM
2,Nc1nc(Cl)cc(NCC2(CO)CC(OCc3ccccc3)C2)n1 (stereo not given),> 100 µM

# Tested on: NCI-H226 lung
# Experiment: DTP human tumour cell line panel, 48 h
row,SMILES,TGI
1,Cc1cccc(N2C(=O)C(Cl)=C(Cl)C2=O)c1,> 100 µM
2,CCC(C)(O)c1cn(-c2cccc(S(=O)(=O)O)c2)nn1 (stereo not given),> 100 µM
3,COc1ccc(OC)c(/C=C/NC=O)c1,> 100 µM
4,CC(=O)c1cccc2c1CC1(C2)Cc2ccc3c(c2C1=O)CCC3 (stereo not given),> 100 µM
5,COc1cc(Cc2cc(OC)c(OC)c(OC)c2)ccc1O,> 100 µM
6,Nc1nc(Cl)cc(NCC2(CO)CC(OCc3ccccc3)C2)n1 (stereo not given),> 100 µM
7,CC1=CC(=O)NCCN1C,> 100 µM

# Tested on: NCI-H460 lung
# Experiment: DTP human tumour cell line panel, 48 h
row,SMILES,TGI
1,Cc1cccc(N2C(=O)C(Cl)=C(Cl)C2=O)c1,> 100 µM
2,CCC(C)(O)c1cn(-c2cccc(S(=O)(=O)O)c2)nn1 (stereo not given),> 100 µM
3,COc1ccc(OC)c(/C=C/NC=O)c1,> 100 µM
4,CC(=O)c1cccc2c1CC1(C2)Cc2ccc3c(c2C1=O)CCC3 (stereo not given),> 100 µM
5,Nc1nc(Cl)cc(NCC2(CO)CC(OCc3ccccc3)C2)n1 (stereo not given),> 100 µM
6,CC1=CC(=O)NCCN1C,> 100 µM

# Tested on: COLO 205 colon
# Experiment: DTP human tumour cell line panel, 48 h
row,SMILES,TGI
1,Cc1cccc(N2C(=O)C(Cl)=C(Cl)C2=O)c1,> 100 µM
2,CCC(C)(O)c1cn(-c2cccc(S(=O)(=O)O)c2)nn1 (stereo not given),> 100 µM
3,COc1ccc(OC)c(/C=C/NC=O)c1,> 100 µM
4,CC(=O)c1cccc2c1CC1(C2)Cc2ccc3c(c2C1=O)CCC3 (stereo not given),92.4 µM
5,COc1cc(Cc2cc(OC)c(OC)c(OC)c2)ccc1O,> 100 µM
6,Nc1nc(Cl)cc(NCC2(CO)CC(OCc3ccccc3)C2)n1 (stereo not given),> 100 µM
7,CC1=CC(=O)NCCN1C,> 100 µM

# Tested on: HCT-15 colon
# Experiment: DTP human tumour cell line panel, 48 h
row,SMILES,TGI
1,Cc1cccc(N2C(=O)C(Cl)=C(Cl)C2=O)c1,> 58.4 µM
